Data published in ChEMBL document CHEMBL1781990, “Synthesis and pharmacological activity of O-aminoalkyl derivatives of 7-hydroxycoumarin” (2011).
In brackets after ≈: the same amount, converted by molar mass. Activity calls are given as the source filed them. The calls are words filed in the database; no cut-off is given here.

Tests used:
Bacillus cereus [1] = assay: Antibacterial against Bacillus cereus ATCC 11778 after 24 hrs by NCCLS M7-A6 method; assay type: functional; details: Bacillus cereus, ATCC 11778, 24 h; read-out: MIC
Escherichia coli [2] = assay: Antibacterial against Escherichia coli ATCC 10536 after 24 hrs by NCCLS M7-A6 method; assay type: functional; details: ATCC 10536, 24 h
Micrococcus luteus [3] = assay: Antibacterial against Micrococcus luteus ATCC 9341 after 24 hrs by NCCLS M7-A6 method; assay type: functional
Staphylococcus aureus [4] = assay: Antibacterial against Staphylococcus aureus ATCC 6538 after 24 hrs by NCCLS M7-A6 method; assay type: functional; details: ATCC 6538, 24 h
Staphylococcus aureus [5] = assay: Antibacterial against Staphylococcus aureus ATCC 6538P after 24 hrs by NCCLS M7-A6 method; assay type: functional
Bacillus subtilis [6] = assay: Antibacterial against Bacillus subtilis ATCC 6633 after 24 hrs by NCCLS M7-A6 method; assay type: functional; details: Bacillus subtilis, ATCC 6633, 24 h; read-out: MIC
Escherichia coli [7] = assay: Antibacterial against Escherichia coli ATCC 8739 at 20 mg/mL after 24 hrs by NCCLS M7-A6 method; assay type: functional, organism-based
Melanoma cell = assay: Cytotoxicity against human melanoma cells assessed as cell growth inhibition at 10^-5 M; assay type: functional, cell-based
786-0 = assay: Cytotoxicity against human 786-0 cells assessed as cell growth inhibition at 10^-5 M; assay type: functional, cell-based
Cancer cell lines [8] = assay: Cytotoxicity against human ovarian cancer cells assessed as cell growth inhibition at 10^-5 M; assay type: functional, cell-based
Cancer cell lines [9] = assay: Cytotoxicity against human lung cancer cells assessed as cell growth inhibition at 10^-5 M; assay type: functional, cell-based
Cancer cell lines [10] = assay: Cytotoxicity against human breast cancer cells assessed as cell growth inhibition at 10^-5 M; assay type: functional, cell-based
Cancer cell lines [11] = assay: Cytotoxicity against human colon cancer cells assessed as cell growth inhibition at 10^-5 M; assay type: functional, cell-based
Leukemia cell = assay: Cytotoxicity against human leukemia cells assessed as cell growth inhibition at 10^-5 M; assay type: functional, cell-based
Cancer cell lines [12] = assay: Cytotoxicity against human prostate cancer cells assessed as cell growth inhibition at 10^-5 M; assay type: functional, cell-based
Cancer cell lines [13] = assay: Cytotoxicity against human renal cancer cells assessed as cell growth inhibition at 10^-5 M; assay type: functional, cell-based
Cancer cell lines [14] = assay: Cytotoxicity against human CNS cancer cells assessed as cell growth inhibition at 10^-5 M; assay type: functional, cell-based
Staphylococcus aureus [15] = assay: Antibacterial against Staphylococcus aureus ATCC 6538P at 20 mg/mL after 24 hrs by NCCLS M7-A6 method; assay type: functional, organism-based
Staphylococcus aureus [16] = assay: Antibacterial against Staphylococcus aureus ATCC 6538 at 20 mg/mL after 24 hrs by NCCLS M7-A6 method; assay type: functional, organism-based
Escherichia coli [17] = assay: Antibacterial against Escherichia coli ATCC 10536 at 20 mg/mL after 24 hrs by NCCLS M7-A6 method; assay type: functional, organism-based
Bacillus cereus [18] = assay: Antibacterial against Bacillus cereus ATCC 11778 at 20 mg/mL after 24 hrs by NCCLS M7-A6 method; assay type: functional, organism-based
Bacillus subtilis [19] = assay: Antibacterial against Bacillus subtilis ATCC 6633 at 20 mg/mL after 24 hrs by NCCLS M7-A6 method; assay type: functional, organism-based
Micrococcus luteus [20] = assay: Antibacterial against Micrococcus luteus ATCC 10240 at 20 mg/mL after 24 hrs by NCCLS M7-A6 method; assay type: functional, organism-based
Micrococcus luteus [21] = assay: Antibacterial against Micrococcus luteus ATCC 9341 at 20 mg/mL after 24 hrs by NCCLS M7-A6 method; assay type: functional, organism-based
[22] = Micrococcus luteus, ATCC 9341, 24 h, read-out: MIC

| MIC (Bacillus cereus [1]) | MIC (Escherichia coli [2]) | MIC (Micrococcus luteus [3]; [22]) | MIC (Staphylococcus aureus [4]) | MIC (Staphylococcus aureus [5]) | MIC (Bacillus subtilis [6]) | SMILES | Activity (Escherichia coli [7]) | Activity (Staphylococcus aureus [15]) | Activity (Staphylococcus aureus [16]) | Activity (Escherichia coli [17]) | also measured |
| --- | --- | --- | --- | --- | --- | --- | --- | --- | --- | --- | --- |
| 28.8 mM (≈ 8680 µg/mL) | 14.4 mM (≈ 4340 µg/mL) | 14.4 mM (≈ 4340 µg/mL) | 43.2 mM (≈ 13000 µg/mL) | 28.8 mM (≈ 8680 µg/mL) | 14.4 mM (≈ 4340 µg/mL) | Cc1cc(=O)oc2cc(OCCN3CCCCC3C)ccc12 (centres undefined) | – | – | – | – | – |
| 1.6 mM (≈ 549 µg/mL) | 26.3 mM (≈ 9030 µg/mL) | 6.6 mM (≈ 2270 µg/mL) | 26.3 mM (≈ 9030 µg/mL) | 26.3 mM (≈ 9030 µg/mL) | 1.6 mM (≈ 549 µg/mL) | CC(=O)c1cc2c(C)cc(=O)oc2cc1OCCN1CCCCC1C (centres undefined) | inactive | – | – | – | – |
| 2.9 mM (≈ 880 µg/mL) | 14.7 mM (≈ 4460 µg/mL) | 7.4 mM (≈ 2250 µg/mL) | 44.1 mM (≈ 13400 µg/mL) | 44.1 mM (≈ 13400 µg/mL) | 2.9 mM (≈ 880 µg/mL) | Cc1cc(=O)oc2cc(OCCN(C(C)C)C(C)C)ccc12 | – | – | – | – | growth inhibition (GI) (Melanoma cell): inactive; growth inhibition (GI) (786-0): inactive; growth inhibition (GI) (Cancer cell lines [8]): inactive; growth inhibition (GI) (Cancer cell lines [9]): inactive; growth inhibition (GI) (Cancer cell lines [10]): inactive; growth inhibition (GI) (Cancer cell lines [11]): inactive; growth inhibition (GI) (Leukemia cell): inactive; growth inhibition (GI) (Cancer cell lines [12]): inactive; growth inhibition (GI) (Cancer cell lines [13]): inactive; growth inhibition (GI) (Cancer cell lines [14]): inactive |
| – | – | – | – | – | – | CCN(CC)CCOc1ccc2c(C)cc(=O)oc2c1C(C)=O.Cl | – | – | – | – | MIC (Micrococcus luteus [3]): 3.5 mM |
| 12.5 mM (≈ 4320 µg/mL) | – | 37.5 mM (≈ 13000 µg/mL) | – | – | 12.5 mM (≈ 4320 µg/mL) | CC(=O)c1cc2c(C)cc(=O)oc2cc1OCCN(C(C)C)C(C)C | inactive | inactive | inactive | inactive | – |
| 2.4 mM (≈ 877 µg/mL) | 35.7 mM (≈ 13000 µg/mL) | 6 mM (≈ 2190 µg/mL) | 35.7 mM (≈ 13000 µg/mL) | 23.8 mM (≈ 8700 µg/mL) | 2.4 mM (≈ 877 µg/mL) | CC(=O)c1c(OCCN(C)Cc2ccccc2)ccc2c(C)cc(=O)oc12 | inactive | – | – | – | – |
| 30.9 mM (≈ 8880 µg/mL) | 30.9 mM (≈ 8880 µg/mL) | 15.4 mM (≈ 4430 µg/mL) | 46.3 mM (≈ 13300 µg/mL) | 61.8 mM (≈ 17800 µg/mL) | 30.9 mM (≈ 8880 µg/mL) | CC1CCCCN1CCOc1ccc2ccc(=O)oc2c1 (centres undefined) | – | – | – | – | – |
| – | – | 40.7 mM (≈ 13200 µg/mL) | – | – | – | Cc1cc(=O)oc2cc(OCCN(C)Cc3ccccc3)ccc12 | inactive | inactive | inactive | inactive | Activity (Bacillus cereus [18]): inactive; Activity (Bacillus subtilis [19]): inactive |
| – | – | – | – | – | – | CCN(CC)CCOc1cc2oc(=O)cc(C)c2cc1C(C)=O | inactive | inactive | inactive | inactive | – |
| 85.1 mM (≈ 15000 µg/mL) | – | – | – | – | – | Cc1cc(=O)oc2cc(O)ccc12 [HYMECROMONE] | inactive | inactive | inactive | inactive | Activity (Micrococcus luteus [20]): inactive; Activity (Micrococcus luteus [21]): inactive; Activity (Bacillus subtilis [19]): inactive |
| 22.9 mM (≈ 5000 µg/mL) | – | 68.7 mM (≈ 15000 µg/mL) | 68.7 mM (≈ 15000 µg/mL) | – | 45.8 mM (≈ 9990 µg/mL) | CC(=O)c1c(O)ccc2c(C)cc(=O)oc12 | inactive | inactive | – | inactive | – |
| 45.1 mM | – | 22.6 mM | – | – | 22.6 mM | Cc1cc(=O)oc2cc(OCC[N+]3(C)CCCCC3C)ccc12 (centres undefined) | inactive | inactive | inactive | inactive | – |
| – | – | 30.2 mM (≈ 10000 µg/mL) | – | – | – | CC(=O)c1c(OCCN2CCOCC2)ccc2c(C)cc(=O)oc12 | inactive | inactive | inactive | inactive | Activity (Bacillus cereus [18]): inactive; Activity (Bacillus subtilis [19]): inactive |
| 69.1 mM (≈ 20000 µg/mL) | 51.8 mM (≈ 15000 µg/mL) | 8.6 mM (≈ 2490 µg/mL) | – | 69.1 mM (≈ 20000 µg/mL) | 69.1 mM (≈ 20000 µg/mL) | Cc1cc(=O)oc2cc(OCCN3CCOCC3)ccc12 | – | – | inactive | – | – |
| 4.6 mM (≈ 1000 µg/mL) | – | 45.8 mM (≈ 9990 µg/mL) | 45.8 mM (≈ 9990 µg/mL) | – | 22.9 mM (≈ 5000 µg/mL) | CC(=O)c1cc2c(C)cc(=O)oc2cc1O | inactive | inactive | – | inactive | – |
| 1.7 mM (≈ 560 µg/mL) | 13.3 mM (≈ 4380 µg/mL) | 1.7 mM (≈ 560 µg/mL) | 13.3 mM (≈ 4380 µg/mL) | 6.7 mM (≈ 2210 µg/mL) | 1.7 mM (≈ 560 µg/mL) | CC(=O)c1cc2c(C)cc(=O)oc2cc1OCCN1CCCCC1 | – | – | – | – | – |
